# Measured values reported in patent US12156860B2, “Disorders implicating PUFA oxidation” (BioJiva LLC, priority 2011, dated 2024).
# Assays:
# [1] = test system: coq null mutants (Q-less yeast); details: cited from earlier work; for sensitivity of Q-less yeast to fatty acid treatment: compared with wild-type parental strain
# [2] = Kinetics of O2 consumption during AMVN-initiated oxidation in chlorobenzene (glass capillary microvolumeter); type: physicochemical
# Protocol: FIG. 7. Kinetics of O2 consumption accompanied the oxidation of 0.71 M LA (plots 1 and 2) and 0.71 M D2-LA (plot 3) in chlorobenzene initiated by 40 mM AMVN at 37° C. Plot 2-0.23 mM HPMC was added to 0.71 M LA.
# The kinetics of oxygen consumption during the oxidation of LA and D2-LA was studied with a glass capillary microvolumeter (FIG. 7). The rate of oxidation, ROX, was measured as a slope of [O2] traces. The rate of initiation, RIN, was determined by the inhibitor method with HPMC (“6-hydroxy-2,2,5,7,8-pentamethylbenzochroman”) as a reference inhibitor. RIN was calculated from the induction period of inhibited oxidation, tIND: RIN=2·[HPMC]/tIND. […] When the process was inhibited by 0.23 mM chain-breaking antioxidant HPMC, the duration of the induction period, tIND, was about 48 min, with the RIN value of around 0.16×10^−6 M/s. […] The latter precludes a direct determination of RIN. […] An estimated kinetic isotope effect (“KIE”), from comparison of ROX for LA and D2-LA, was around 6.1×10^−6/0.18×10^−6≈35. A similar KIE was determined during the oxidation of LA and 11,11-d2-LA in Triton X-100 aqueous micelles (data not shown). For comparative purposes, the theoretical KIE is 6.9 at 25° C. See Carpenter, “Determination of Organic Reaction Mechanisms” (John Wiley & Sons, 1984), p. 89.
# [3] = test system: coq null mutants (Q-less yeast); details: for viability of coq null mutants after fatty acid treatment: 200 μM fatty acid, plate dilution / colony assay; for protection in the yeast model: compared with D4-linolenic acid
# Protocol: FIG. 3. […] Yeast coq3, coq7 and coq9 null mutants were prepared in the W303 yeast genetic background (WT). Yeast strains were grown in YPD medium (1% Bacto-yeast extract, 2% Bacto-peptone, 2% dextrose) and harvested while in log phase growth (OD600 nm=0.1-1.0). Cells were washed twice with sterile water and resuspended in phosphate buffer (0.10 M sodium phosphate, pH 6.2, 0.2% dextrose) to an OD600 nm=0.2. Samples were removed and 1:5 serial dilutions starting at 0.20 OD/ml were plated on YPD plate medium, to provide a zero time untreated control (shown in top left panel). The designated fatty acids were added to 200 μM final concentration to 20 ml of yeast in phosphate buffer. At 2 h, 4 h, and 16 h samples were removed, 1:5 serial dilutions prepared, and spotted onto YPD plate medium. Pictures were taken after 2 days of growth at 30° C.
# FIG. 4. […] The fatty acid sensitive assay was performed as described in FIG. 3, except that 100 μl aliquots were removed at 1, 2, and 4 h and, following dilution, spread onto YPD plates. Pictures were taken after 2 to 2.5 days, and the number of colonies counted. Yeast strains include Wild type (circles), atp2 (triangles), or coq3 (squares); Fatty acid treatments include oleic C18:1 (solid line), linolenic, C18:3, n-3 (dashed line) or 11,11,14,14-D4-linolenic, C18:3, n-3, (dotted line).
# Q-less yeast (coq mutants) provide an ideal system to assess in vivo autoxidation of fatty acids. Coenzyme Q (ubiquinone or Q) serves as a small lipophilic antioxidant as well as an electron shuttle in the respiratory chain of the mitochondrial inner membrane. Ten S. cerevisiae genes (COQ1-COQ10) are required for coenzyme Q biosynthesis and function, and the deletion of any results in respiratory deficiency (Tran U C, Clarke C F. Mitochondrion 2007; 7S, 562).
# A plate dilution assay can be used to assess PUFA sensitivity. This assay can be performed by spotting serial five-fold dilutions of aliquots onto YPD plate media (FIG. 3). The sensitivity of the different strains can be observed by visual inspection of the density of cells in each spot.
# [4] = test system: NASH (MCD diet) rats; test: NASH induced by methionine and choline deficient diet; type: in vivo, Rattus norvegicus, Wistar; details: daily over three months
# Protocol: (§1) Fifty male heterozygous rats, 45-days-old, from the Rattus norvegicus species and Wistar lineage are kept in polypropylene cages, in groups of five animals, under a 12 h-clear/dark cycle and under controlled temperature conditions. The induction of NASH is carried out through a diet deficient in methionine and choline (MCD) according to known procedures (See Rogers A E, Newberne P M. Alcoholic and nutritional fatty liver and cirrhosis. Am J Pathol. 1973; 73:817-20). […] During the study period, the animals are weighed on a weekly basis and the drugs dose is readjusted as necessary. On the first day of the study, besides determining the animals' weight, their blood is collected through retro-orbital plexus puncture for biochemical analysis: alanine-aminotransferase (ALT) and aspartate-aminotransferase (AST) (colorimetric test, using the Labtest kit). One day after concluding the induction period and compound administration (90 days), animals are sacrificed by decapitation. Once more, each animal's blood is collected for biochemical analysis. Then, laparotomy with total hepatectomy and liver preparation are carried out for lipoperoxidation (LPO) and histological analysis. Liver tissue samples are analyzed using the thiobarbituric-acid reactant substance (TBARS) measurement according to known methods (See Lowry et al. Protein measurement with the folin phenol reagent. J Biol Chem. 1951; 193:265-75) and the results are expressed in nmol of malondialdehyde/mg of protein. Slides with liver fragments are also dyed with hematoxilin-eosine and picrosirius, in order to evaluate the fibrosis level, and with Perls to evaluate the presence of iron stores, having been examined by an only pathologist blinded to the animals' data. The minimum histological criterion for NASH diagnosis is the presence of hepatocellular ballooning-related steatosis, involving zone 3 and lobular inflammatory infiltrate. Mallory corpuscles and sinusoidal fibrosis, involving zone 3 might be present or not. The graduation of both necroinflammatory and fibrosis activity is carried out according to known classifications (See Brunt E M, Janney C G, Di Bisceglie A M, Neuschwander-Tetri B A, Bacon B R. Nonalcoholic steatohepatitis: a proposal for grading and staging the histological lesions. Am J Gastroenterol. 1999; 94:2467-74).
# [5] = test system: alcoholic liver disease rats; test: Alcoholic liver disease and cirrhosis induced by 5% ethanol diet; type: in vivo, Rattus norvegicus, Wistar; details: 5% ethanol diet rats, daily over three months
# Protocol: as §1, with “alcoholic liver disease and cirrhosis” for “NASH”, “containing 5% ethanol […].” for “deficient in methionine and choline (MCD) according to known procedures (See Rogers A E, Newberne P M. Alcoholic and nutritional fatty liver and cirrhosis. Am J Pathol. 1973; 73:817-20).”, “days), the” for “days),”, “data.” for “data. The minimum histological criterion for NASH diagnosis is the presence of hepatocellular ballooning-related steatosis, involving zone 3 and lobular inflammatory infiltrate. Mallory corpuscles and sinusoidal fibrosis, involving zone 3 might be present or not. The graduation of both necroinflammatory and fibrosis activity is carried out according to known classifications (See Brunt E M, Janney C G, Di Bisceglie A M, Neuschwander-Tetri B A, Bacon B R. Nonalcoholic steatohepatitis: a proposal for grading and staging the histological lesions. Am J Gastroenterol. 1999; 94:2467-74).”
# [6] = test system: stroke-prone spontaneously hypertensive (SHRSP) rat; test: SHRSP rat model of hypertension; type: in vivo; details: SHRSP rats, 8 weeks
# Description: The stroke-prone spontaneously hypertensive (SHRSP) rat model of hypertension, which has been previously described (McIntyre et al., 1997 Hypertension 30:1517; Alexander et al., 1999 Cardiovasc. Res. 43:798; Fennell et al., 2002 Gene Ther. 9:110), can be used for the assessment of a compound's ability to mitigate hypertension.
# [7] = test system: rat hearts; test: Langendorf isolated heart perfusion model, echo- and electrocardiography; type: in vivo; details: rats, 8 weeks supplementation
# Protocol: Test compounds disclosed herein can also be assessed using the Langendorf isolated heart perfusion model. […] Following the treatment period, rat hearts are analyzed by echocardiography for measurement of muscle thickness of the left ventricle, left atrium, right ventricle, and right atrium and electrocardiography for measuring electrical activity. After live evaluation, rats are humanely sacrificed and their hearts isolated and connected to the Langendorf isolated perfusion system (See Jennings et al., Am. Surg. 2004; 70(9), 797-800). Left ventricular pressure is then measured with a left ventricular balloon. Coronary flow is also measured. Cardiac function is further assessed by determining the effect of administration of test compounds on the rate of contraction and relaxation of the heart. To determine whether any observed effects on cardiac function are due to the effect of the test compound on mitochondrial function, mitochondrial activity pre-ischemia and post-ischemia is assessed for each of the treatment groups.
# [8] = test system: WT (W303) yeast; details: 200 μM, 4 h incubation
# Protocol: Uptake of exogenously supplied fatty acids by yeast. WT (W303) yeast were harvested at log phase and incubated in the presence of 200 μM of the designated fatty acid for either 0 or 4 h.
# Wild-type yeast were harvested during log phase growth and incubated in the presence of exogenously added fatty acid (for 0 or 4 h) in the presence of phosphate buffer plus 0.20% dextrose, as described for the fatty acid sensitivity assay. Cells were harvested, washed twice with 10 ml sterile water, and the yeast cell pellets were then processed by alkaline methanolysis as described above. The fatty acids are detected as methylesters (FAMEs) following GC-MS with C17:0 added as an internal standard (FIG. 6).
# [9] = test system: Q-less coq3 yeast; test: Yeast incubated with different ratios of H- and D-PUFA, plate dilution; type: cell-based, S. cerevisiae; details: after 3 hours of treatment, data not shown
# Protocol: FIG. 9. […] Wild-type, yeast Q-less coq3, or respiratory deficient cor1 null mutants were incubated in the presence of 200 μM of LA and D2-LA at different ratios of PUFAs. Serial dilutions (1:5) starting at 0.2 OD/ml were spotted on YPD solid plate medium. A zero-time untreated control is shown on the top left. Growth at 30° C.
# FIG. 10. […] Serial dilutions (1:5) starting at 0.2 OD/ml were spotted on YPD solid plate medium. Growth at 30° C.
# Wild-type, yeast Q-less coq3, or respiratory deficient cor1 null mutants were incubated in the presence of 200 μM of LA and D2-LA at different ratios of PUFAs, as indicated in FIG. 9. Serial dilutions (1:5) starting at 0.2 OD/ml were spotted on YPD solid plate medium. […] Growth was at 30° C.
# Serial dilutions (1:5) starting at 0.2 OD/ml were spotted on YPD solid plate medium. Growth was at 30° C.
# [10] = cited from earlier work
# [11] = test system: wild-type (W303-1B) yeast cells; details: four hour treatment; cited from earlier work
smiles,measurement,setting,value
CCCCCCCC/C=C\CCCCCCCC(=O)O [oleic acid],sensitivity of Q-less yeast to fatty acid treatment,[1],behave the same as the wild-type parental strain
"CCCCC/C=C\C/C=C\CCCCCCCC(=O)O [LA, cis,cis-9,12-Octadecadienoic acid, reference compound]","rate of oxidation, ROX","[2]; 0.71 M in chlorobenzene, 40 mM AMVN, 37° C.",6.1e-06 M/s
same,"length of the kinetic chain, ROX/RIN",[2]; for D2-LA assuming RIN comparable to that of LA,38±3
same,oxidizability,[2]; n=5,0.0215±0.008 M^−0.5 s^−0.5
"[2H]C([2H])(/C=C\CC)/C=C\C([2H])([2H])/C=C\CCCCCCCC(=O)O [D4-linolenic acid, 11,11,14,14-Tetradeutero-cis,cis,cis-9,12,15-Octadecatrienoic acid]",viability of coq null mutants after fatty acid treatment,[3],resistant to PUFA-mediated cell killing
same,viability of cells compared with oleic acid treatment,[3]; quantitative colony counting (FIG. 4),similar
same,amount of MDA in liver samples (TBARS),[4],reduce the amount of MDA found in liver samples
same,histological signs of NASH,[4],reverse the histological signs of NASH
same,amount of MDA in liver samples (TBARS),[5],reduce the amount of MDA found in liver samples
same,histological signs of fatty liver disease,[5],reverse the histological signs of fatty liver disease
same,systolic blood pressure,[6],reduction in systolic blood pressure
same,symptoms and markers associated with cardiac disorders,[7],reduce symptoms and markers associated with cardiac disorders
same,incorporation of fatty acid by yeast,[8],avidly incorporate
"[2H]C(/C=C\CCCCC)/C=C\CCCCCCCC(=O)O (stereo not shown) [11,11-D,H-LA, [11^−2 H]-linoleic acid]",cell viability,[9],no detectable loss in cell viability
"[2H]O[2H] [heavy water, D2O]",amount a 70 kg person might drink without serious consequences,[10],4.8 L
"[2H]C([2H])(/C=C\C/C=C\CC)C/C=C\CCCCCCC(=O)O [11, 11-D2-linolenic acid, 11,11-Dideutero-cis,cis,cis-octadeca-8,12,15-trienoic acid]",protection in the yeast model,[3],comparable protection
"[2H]C([2H])(/C=C\CC)/C=C\CC/C=C\CCCCCCC(=O)O [14, 14-D2-linolenic acid, 14,14-Dideutero-cis,cis,cis-octadeca-8,12,15-trienoic acid]",protection in the yeast model,[3],comparable protection
"CC/C=C\C/C=C\C/C=C\CCCCCCCC(=O)O [linolenic acid, cis,cis,cis-9,12,15-Octadecatrienoic acid, reference compound]",viability of coq null mutants after fatty acid treatment,[3],dramatic loss of viability
same,incorporation of fatty acid by yeast,[8],avidly incorporate
same,"viable Q-less (coq2, coq3, and coq5) yeast mutants",[1]; following a four hour treatment,Less than 1%
same,wild-type cells remaining viable,[11],70%
CCCCC/C=C\C/C=C\C/C=C\C/C=C\CCCC(=O)O [arachidonic acid],sensitivity of Q-less yeast to fatty acid treatment,[1],hypersensitive
